Results reported in patent US20050250836A1, “Inhibitors of checkpoint kinases (Wee1 and Chk1)” (Pfizer Inc, priority 2004, published 2005).

Row | SMILES | melting point
1 | O=C1NC(=O)c2c1c(-c1ccccc1Cl)cc1c2cc(C(=O)O)n1CCCBr [Example 49, 6-(3-Bromopropyl)-4-(2-chlorophenyl)-1,3-dioxo-1,2,3,6-tetrahydro-2,6-diaza-as-indacene-7-carboxylic acid] | 294 to 295 °C
2 | O=C1NC(=O)c2c1c(-c1ccccc1Cl)cc1c2cc(CO)n1CCCBr [Example 50, 6-(3-Bromopropyl)-4-(2-chlorophenyl)-7-hydroxymethyl-6H-2,6-diaza-as-indacene-1,3-dione] | 218 to 220 °C
3 | COCCCn1c(C(N)=O)cc2c3c(c(-c4ccccc4Cl)cc21)C(=O)NC3=O [Example 51, 4-(2-Chlorophenyl)-6-(3-methoxypropyl)-1,3-dioxo-1,2,3,6-tetrahydro-2,6-diaza-as-indacene-7-carboxylic acid amide] | 260 to 261 °C
4 | CCOCCOCCn1c(C=O)cc2c3c(c(-c4ccccc4Cl)cc21)C(=O)NC3=O [Example 55, 4-(2-Chlorophenyl)-6-[2-(2-ethoxyethoxy)ethyl]-1,3-dioxo-1,2,3,6-tetrahydro-2,6-diaza-as-indacene-7-carbaldehyde] | 162 to 165 °C
5 | CCOCCOCCn1c(C=O)c(Br)c2c3c(c(-c4ccccc4Cl)cc21)C(=O)NC3=O [Example 56, 8-Bromo-4-(2-chlorophenyl)-6-[2-(2-ethoxyethoxy)ethyl]-1,3-dioxo-1,2,3,6-tetrahydro-2,6-diaza-as-indacene-7-carbaldehyde] | 203 to 205 °C
6 | COCCCn1c(C=O)cc2c3c(c(-c4ccccc4Cl)cc21)C(=O)NC3=O [Example 58, 4-(2-Chlorophenyl)-6-(3-methoxypropyl)-1,3-dioxo-1,2,3,6-tetrahydro-2,6-diaza-as-indacene-7-carbaldehyde] | 155 to 156 °C
7 | COCCCn1c(CO)cc2c3c(c(-c4ccccc4Cl)cc21)C(=O)NC3=O [Example 59, 4-(2-Chlorophenyl)-7-hydroxymethyl-6-(3-methoxypropyl)-6H-2,6-diaza-as-indacene-1,3-dione] | 187 to 189 °C
8 | COCCCn1c(CO)c(Br)c2c3c(c(-c4ccccc4Cl)cc21)C(=O)NC3=O [Example 60, 8-Bromo-4-(2-chlorophenyl)-7-hydroxymethyl-6-(3-methoxypropyl)-6H-2,6-diaza-as-indacene-1,3-dione] | 178 to 180 °C
9 | COCCCn1c(C=O)c(Br)c2c3c(c(-c4ccccc4Cl)cc21)C(=O)NC3=O [Example 61, 8-Bromo-4-(2-chlorophenyl)-6-(3-methoxypropyl)-1,3-dioxo-1,2,3,6-tetrahydro-2,6-diaza-as-indacene-7-carbaldehyde] | 206 to 207 °C
10 | O=C1NC(=O)c2c1c(-c1ccccc1Cl)cc1c2c(Br)c(CO)n1CCCO [Example 63, 8-Bromo-4-(2-chlorophenyl)-7-hydroxymethyl-6-(3-hydroxypropyl)-6H-2,6-diaza-as-indacene-1,3-dione] | 203 to 205 °C
11 | COCCCn1c(C=O)c(Cl)c2c3c(c(-c4ccccc4Cl)cc21)C(=O)NC3=O [Example 64, 8-Chloro-4-(2-chlorophenyl)-6-(3-methoxypropyl)-1,3-dioxo-1,2,3,6-tetrahydro-2;6-diaza-as-indacene-7-carbaldehyde] | 198 to 199 °C
12 | O=C1NC(=O)c2c1c(-c1ccccc1Cl)cc1c2c(Cl)c(CO)n1CCCO [Example 66, 8-Chloro-4-(2-chlorophenyl)-7-hydroxymethyl-6-(3-hydroxypropyl)-6H-2,6-diaza-as-indacene-1,3-dione] | 218 to 219 °C
13 | COCCCn1c(CO)c(Cl)c2c3c(c(-c4ccccc4Cl)cc21)C(=O)NC3=O [Example 67, 8-Chloro-4-(2-chlorophenyl)-7-hydroxymethyl-6-(3-methoxypropyl)-6H-2,6-diaza-as-indacene-1,3-dione] | 214 to 215 °C
14 | COCCOCCCn1c(C=O)c(Br)c2c3c(c(-c4ccccc4Cl)cc21)C(=O)NC3=O [Example 69, 8-Bromo-4-(2-chlorophenyl)-6-[3-(2-methoxyethoxy)propyl]-1,3-dioxo-1,2,3,6-tetrahydro-2,6-diaza-as-indacene-7-carbaldehyde] | 168 to 169 °C
15 | COCCOCCCn1c(CO)c(Br)c2c3c(c(-c4ccccc4Cl)cc21)C(=O)NC3=O [Example 70] | 149 to 150 °C
16 | Cn1c(C(=O)O)cc2c3c(c(-c4ccccc4Cl)cc21)C(=O)NC3=O [Example 83, 4-(2-Chlorophenyl)-6-methyl-1,3-dioxo-1,2,3,6-tetrahydro-2,6-diaza-as-indacene-7-carboxylic acid] | 301 to 302 °C
17 | Cn1cc(Br)c2c3c(c(I)cc21)C(=O)NC3=O [Example 132, 8-Bromo-4-iodo-6-methyl-6H-2,6-diaza-as-indacene-1,3-dione] | 242 °C (dec.)
18 | CSc1ccccc1-c1cc2c(ccn2C)c2c1C(=O)NC2=O [Example 134 (sulfide), 6-Methyl-4-(2-methylsulfanylphenyl)-6H-2,6-diaza-as-indacene-1,3-dione] | 272 to 274 °C
19 | Cn1ccc2c3c(c(-c4ccccc4[S+](C)[O-])cc21)C(=O)NC3=O (stereo not shown) [Example 134 (sulfoxide), 4-(2-Methanesulfinylphenyl)-6-methyl-6H-2,6-diaza-as-indacene-1,3-dione] | 311 to 315 °C
20 | C[C@@H]1CN(CCCn2cc(Br)c3c4c(c(-c5ccccc5Cl)cc32)C(=O)NC4=O)C[C@H](C)N1 [Example 135, 8-Bromo-4-(2-chlorophenyl)-6-[3-(cis-3,5-dimethylpiperazin-1-yl)propyl]-6H-2,6-diaza-as-indacene-1,3-dione] | 236 to 239 °C
21 | O=C1NC(=O)c2c1c(-c1ccccc1Cl)cc1c2c(Br)cn1CCCN1CCCC1 [Example 137, 8-Bromo-4-(2-chlorophenyl)-6-(3-pyrrolidin-1-ylpropyl)-6H-2,6-diaza-as-indacene-1,3-dione] | 158 to 161 °C
22 | CN1CCN(CCCn2cc(Br)c3c4c(c(-c5ccccc5Cl)cc32)C(=O)NC4=O)CC1 [Example 138, 8-Bromo-4-(2-chlorophenyl)-6-[3-(4-methylpiperazin-1-yl)-propyl]-6H-2,6-diaza-as-indacene-1,3-dione] | 150 to 152 °C
23 | O=C1NC(=O)c2c1c(-c1ccccc1Cl)cc1c2c(Br)cn1CCCN1CCOCC1 [Example 139, 8-Bromo-4-(2-chlorophenyl)-6-(3-morpholin-4-ylpropyl)-6H-2,6-diaza-as-indacene-1,3-dione] | 117 to 120 °C
24 | CN(C)CCCn1cc(Br)c2c3c(c(-c4ccccc4Cl)cc21)C(=O)NC3=O [Example 140, 8-Bromo-4-(2-chlorophenyl)-6-(3-dimethylaminopropyl)-6H-2,6-diaza-as-indacene-1,3-dione] | 160 to 162 °C

More lines, now with the values ahead:

Row | melting point | SMILES
25 | 173 to 175 °C | CCCN(CCC)CCCn1cc(Br)c2c3c(c(-c4ccccc4Cl)cc21)C(=O)NC3=O [Example 141, 8-Bromo-4-(2-chlorophenyl)-6-(3-dipropylaminopropyl)-6H-2,6-diaza-as-indacene-1,3-dione]
26 | 208 to 209 °C | O=C1NC(=O)c2c1c(-c1ccccc1Cl)cc1c2ccn1CCN1CCCC1 [Example 142, 4-(2-Chlorophenyl)-6-(2-pyrrolidin-1-ylethyl)-6H-2,6-diaza-as-indacene-1,3-dione]
27 | 200 to 205 °C | C=Cc1cn(C)c2cc(-c3ccccc3Cl)c3c(c12)C(=O)NC3=O [Example 145, 4-(2-Chlorophenyl)-6-methyl-8-vinyl-6H-2,6-diaza-as-indacene-1,3-dione]
28 | 179 to 183 °C | Cn1cc(C(O)CO)c2c3c(c(-c4ccccc4Cl)cc21)C(=O)NC3=O (stereo not shown) [Example 146, 4-(2-Chlorophenyl)-8-(1,2-dihydroxyethyl)-6-methyl-6H-2,6-diaza-as-indacene-1,3-dione]
29 | 225 to 229 °C | Cn1cc(CCO)c2c3c(c(-c4ccccc4Cl)cc21)C(=O)NC3=O [Example 147, 4-(2-Chlorophenyl)-8-(2-hydroxyethyl)-6-methyl-6H-2,6-diaza-as-indacene-1,3-dione]
30 | 230 to 233 °C | CCc1cn(C)c2cc(-c3ccccc3Cl)c3c(c12)C(=O)NC3=O [Example 148, 4-(2-Chlorophenyl)-8-ethyl-6-methyl-6H-2,6-diaza-as-indacene-1,3-dione]
31 | 125 to 129 °C | C#Cc1cn(C)c2cc(-c3ccccc3Cl)c3c(c12)C(=O)NC3=O [Example 149, 4-(2-Chlorophenyl)-8-ethynyl-6-methyl-6H-2,6-diaza-as-indacene-1,3-dione]
32 | 154 to 157 °C | COc1ccccc1-c1cc2c(c(C#CCO)cn2C)c2c1C(=O)NC2=O [Example 150, 8-(3-Hydroxyprop-1-ynyl)-4-(2-methoxyphenyl)-6-methyl-6H-2,6-diaza-as-indacene-1,3-dione]
33 | 160 to 163 °C | Cn1cc(C#N)c2c3c(c(-c4ccccc4Cl)cc21)C(=O)NC3=O [Example 151, 4-(2-Chlorophenyl)-6-methyl-1,3-dioxo-1,2,3,6-tetrahydro-2,6-diaza-as-indacene-8-carbonitrile]
34 | 182 to 186 °C | O=C(O)CCn1cc(Br)c2c3c(c(-c4ccccc4Cl)cc21)C(=O)NC3=O [Example 165, 3-[8-Bromo-4-(2-chlorophenyl)-1,3-dioxo-2,3-dihydro-1H-2,6-diaza-as-indacen-6-yl]propionic acid]
35 | 160 to 165 °C (dec.) | Cn1cc(CN2CCCC2)c2c3c(c(-c4ccccc4Cl)cc21)C(=O)NC3=O [Example 166, 4-(2-Chlorophenyl)-6-methyl-8-pyrrolidin-1-ylmethyl-6H-2,6-diaza-as-indacene-1,3-dione]
36 | 155 to 159 °C | CN(C)Cc1cn(C)c2cc(-c3ccccc3Cl)c3c(c12)C(=O)NC3=O [Example 167, 4-(2-Chlorophenyl)-8-dimethylaminomethyl-6-methyl-6H-2,6-diaza-as-indacene-1,3-dione]
37 | 270 to 274 °C | Cn1cc(CO)c2c3c(c(-c4ccccc4Cl)cc21)C(=O)NC3=O [Example 168, 4-(2-chlorophenyl)-8-hydroxymethyl-6-methyl-6H-2,6-diaza-as-indacene-1,3-dione]
